Source: patent US7968587B2, “Tetrahydrocyclopenta[b]indole compounds as androgen receptor modulators” (priority 2006, dated 2011)

System: castrated (GDX) male Wistar rats
Test: In vivo model of efficacy and selectivity (castrated rat; LA, SV wet weight, PALP activity)
Settings: po, two weeks; for LA weight % Efficacy versus control (GDX) (ANOVA, p < 0.05): levator ani wet weight normalized to body weight; for PALP % Efficacy versus control (GDX) (ANOVA, p < 0.05): periosteal alkaline phosphatase activity, tibia; for SV weight % Efficacy verses control (sham) (ANOVA, p < 0.05): seminal vesicle wet weight normalized to body weight
Procedure: Male Wistar rats (12 weeks old) are castrated (gonadectomized or “GDX”) according to approved procedures (Charles River Labs) and allowed to waste for eight - 10 weeks. Age-matched sham-operated mice are also prepared. (Sham-operated mice are animals that have been exposed to the same surgical procedures as castrated animals except their testes are not removed.) Animals are housed in a temperature-controlled room (24° C.) with a reversed 12 hour light/dark cycle (dark 10:00/22:00) and water and food are available ad libitum.
Test compounds are administered to the animals using conventional vehicles. For example, 1% sodium carboxymethylcellulose (CMC)+0.25% Tween 80 in sterile H2O can be used for oral administration and 6% ethyl-alcohol (EtOH)+94% cyclodexitrane (CDX) can be used for subcutaneous injections. Sham operated rats treated with vehicle alone are used as a treatment positive controls whereas castrated rats treated only with vehicle are used as treatment negative control.
Test animals are dosed over a two week timeframe, orally or subcutaneously, with, for example, 0.3, 1, 3, 10 or 30 mg/kg/day of a compound of the present invention. After the two-week treatment, as an indicator of activity, the wet weight of the Levator Ani (LA) muscle in the test group is determined and compared to the wet weight of the Levator Ani from the castrated, vehicle-only control group. The wet weights of the muscle obtained in both the test group and the vehicle-only group are normalized relative to total body weight. As an indicator of tissue selective activity, the wet weight of the seminal vesicle (SV) from test animals is similarly compared to the wet weight of the seminal vesicles from the sham, vehicle-only group. Again, the wet weights of the vesicles obtained from both the test group and the vehicle-only group are normalized relative to total body weight.
In addition to the Levator Ani wet weight, the left tibia of rats are isolated during necropsy and after uncapping of the epiphysis, the soft tissue surrounding the bone is carefully removed. This sample is then placed in a solution containing 0.2% collagenase in Tris Buffer (pH 7.5). The resulting enzymatic excision of the outer periosteal layer is subjected immediately to an assay to determine alkaline phosphatase activity, an indicator of osteoblast/bone anabolic activity. Briefly, 30 μL of sample is placed in an epitube containing 200 μL of para-nitrophenyl phosphate (PNPP) substrate buffer (Pierce Cat # 37621). Purified alkaline phosphatase (Sigma Cat. # P4252) is used to make a standard curve, and the samples are read in a plate reader at Abs405 to determine periosteal alkaline phosphatase (PALP) activity. The results obtained from both the test group and the vehicle only group may be normalized relative to total body weight.
Percent Efficacy (% Eff.) values may be determined as follows: % Eff.=((Wet weight of LA or SV or PALP activity in test animal/test animal total body weight)/(Wet weight of LA or SV or PALP activity in control animal/control animal total body weight))×100.

## CN(C)S(=O)(=O)N[C@@H]1Cc2c(n(Cc3cccc(F)n3)c3ccc(C#N)cc23)C1 [Example 74, (R)-N′-[7-Cyano-4-(6-fluoro-pyridin-2-ylmethyl)-1,2,3,4-tetrahydro-cyclopenta[b]indol-2-yl]-N,N-dimethylsulfamide]
3 mg/Kg/d
  LA weight % Efficacy versus control (GDX) (ANOVA, p < 0.05): 134%
  PALP % Efficacy versus control (GDX) (ANOVA, p < 0.05): 95%
  SV weight % Efficacy verses control (sham) (ANOVA, p < 0.05): 6%
10 mg/Kg/d
  LA weight % Efficacy versus control (GDX) (ANOVA, p < 0.05): 195%
  PALP % Efficacy versus control (GDX) (ANOVA, p < 0.05): 116%
  SV weight % Efficacy verses control (sham) (ANOVA, p < 0.05): 8%
30 mg/Kg/d
  LA weight % Efficacy versus control (GDX) (ANOVA, p < 0.05): 186%
  PALP % Efficacy versus control (GDX) (ANOVA, p < 0.05): 107%
  SV weight % Efficacy verses control (sham) (ANOVA, p < 0.05): 14%
